In one assay the test system is Staphylococcus aureus. Put plainly: Inhibitors of Bacterial Quorum Sensing Structure Activity Relationship (SAR) Analysis: Dose Response Assay. [Related pubchem assays: 700, 527 ]. The assay is classed as functional, organism-based.
Assay [1] has as its target Cyclin-dependent kinase 5/CDK5 activator 1 (Homo sapiens, UniProt Q00535). Description: blockade of human CDK5 activity – biochemical, cherry-picked samples, set 2, dose response (AID 504545).
Assay [2] deals with T1, Endoribonuclease toxin MazF (Escherichia coli K-12, UniProt P0AE70).
T1 sequence (P0AE70 whole entry): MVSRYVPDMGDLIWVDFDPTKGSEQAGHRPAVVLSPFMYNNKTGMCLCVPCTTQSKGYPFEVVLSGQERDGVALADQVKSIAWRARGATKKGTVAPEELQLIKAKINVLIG
Put plainly: activation of MazEF endoribonuclease cleavage – biochemical, fluorescence, single-stranded RNA substrate, uHTS hits, dose response (AID 588481). The assay is classed as functional.

Assay [3] concerns the target T1, Endoribonuclease toxin MazF. Put plainly: substrate-only fluorescence increase artefacts – biochemical, single-stranded RNase substrate, counter-screen for MazEF activator project, dose response (AID 588502). The assay is classed as functional. On the technique in general: A counterscreen serves to expose hits that act by an unwanted route or on another target.
In assay [4] the target is Dual specificity tyrosine-phosphorylation-regulated kinase 1A (Rattus norvegicus, UniProt Q63470). The assay is classed as biochemical, Homo sapiens.
The target in assay [5] is Ras and Rab interactor 1/Tyrosine-protein kinase ABL1 (Homo sapiens, UniProt P00519+Q13671). It is filed as functional.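 Note: biochemical TR-FRET dose-response test measuring inhibition of binding between Rin1 and Abl proteins.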
Chain of Ras and Rab interactor 1/Tyrosine-protein kinase ABL1 (P00519 whole entry): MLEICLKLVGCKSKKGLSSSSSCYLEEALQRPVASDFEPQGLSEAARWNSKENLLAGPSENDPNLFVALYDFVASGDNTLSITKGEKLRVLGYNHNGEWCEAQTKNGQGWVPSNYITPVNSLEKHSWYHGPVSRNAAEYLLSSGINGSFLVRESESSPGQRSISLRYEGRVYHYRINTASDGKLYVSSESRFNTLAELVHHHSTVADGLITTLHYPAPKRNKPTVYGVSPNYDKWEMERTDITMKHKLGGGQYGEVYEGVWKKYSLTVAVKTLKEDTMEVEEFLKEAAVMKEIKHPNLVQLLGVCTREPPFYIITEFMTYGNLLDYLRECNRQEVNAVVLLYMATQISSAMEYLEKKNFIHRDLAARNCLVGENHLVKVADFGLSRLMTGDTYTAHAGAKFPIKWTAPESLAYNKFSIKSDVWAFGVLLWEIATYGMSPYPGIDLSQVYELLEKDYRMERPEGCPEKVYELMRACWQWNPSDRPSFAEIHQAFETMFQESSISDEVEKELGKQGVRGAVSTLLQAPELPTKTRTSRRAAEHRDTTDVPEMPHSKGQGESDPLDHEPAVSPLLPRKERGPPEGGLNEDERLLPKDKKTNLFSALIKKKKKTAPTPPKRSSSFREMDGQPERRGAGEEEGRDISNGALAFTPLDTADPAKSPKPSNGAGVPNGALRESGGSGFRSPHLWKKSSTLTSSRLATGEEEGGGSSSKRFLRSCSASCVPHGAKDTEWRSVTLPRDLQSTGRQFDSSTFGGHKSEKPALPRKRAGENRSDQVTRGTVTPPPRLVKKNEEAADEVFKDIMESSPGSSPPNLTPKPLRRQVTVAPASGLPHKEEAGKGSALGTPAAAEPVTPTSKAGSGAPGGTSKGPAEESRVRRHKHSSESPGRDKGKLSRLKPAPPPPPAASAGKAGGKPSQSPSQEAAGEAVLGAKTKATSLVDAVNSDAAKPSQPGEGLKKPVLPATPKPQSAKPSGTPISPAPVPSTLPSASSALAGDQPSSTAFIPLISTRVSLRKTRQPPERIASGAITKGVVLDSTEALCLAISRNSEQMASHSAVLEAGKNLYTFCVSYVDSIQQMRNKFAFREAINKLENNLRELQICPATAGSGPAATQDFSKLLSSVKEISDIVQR
Chain of Ras and Rab interactor 1/Tyrosine-protein kinase ABL1 (Q13671 whole entry): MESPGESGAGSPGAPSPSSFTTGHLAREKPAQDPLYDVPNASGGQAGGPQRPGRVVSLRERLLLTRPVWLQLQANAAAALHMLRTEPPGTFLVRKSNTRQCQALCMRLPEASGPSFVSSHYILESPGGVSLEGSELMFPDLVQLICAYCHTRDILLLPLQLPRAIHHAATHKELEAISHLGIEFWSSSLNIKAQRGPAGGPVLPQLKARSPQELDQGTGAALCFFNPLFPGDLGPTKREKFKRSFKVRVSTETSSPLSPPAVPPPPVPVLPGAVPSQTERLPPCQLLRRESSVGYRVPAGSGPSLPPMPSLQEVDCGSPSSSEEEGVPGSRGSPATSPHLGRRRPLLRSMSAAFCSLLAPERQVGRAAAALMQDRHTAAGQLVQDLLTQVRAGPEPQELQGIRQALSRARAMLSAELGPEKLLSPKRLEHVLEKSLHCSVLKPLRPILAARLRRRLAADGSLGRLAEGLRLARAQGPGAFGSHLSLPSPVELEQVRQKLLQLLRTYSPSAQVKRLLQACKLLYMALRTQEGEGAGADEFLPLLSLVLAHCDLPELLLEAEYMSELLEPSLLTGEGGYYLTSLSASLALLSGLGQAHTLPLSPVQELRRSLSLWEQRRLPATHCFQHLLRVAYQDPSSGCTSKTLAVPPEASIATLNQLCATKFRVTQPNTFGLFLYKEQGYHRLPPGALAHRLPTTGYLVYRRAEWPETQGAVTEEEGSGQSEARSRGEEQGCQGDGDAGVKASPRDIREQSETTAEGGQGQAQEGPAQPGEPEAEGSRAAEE
Assay [6] deals with T2, Rac GTPase-activating protein 1 (Homo sapiens, UniProt Q9H0H5).
T2 sequence (Q9H0H5 whole entry): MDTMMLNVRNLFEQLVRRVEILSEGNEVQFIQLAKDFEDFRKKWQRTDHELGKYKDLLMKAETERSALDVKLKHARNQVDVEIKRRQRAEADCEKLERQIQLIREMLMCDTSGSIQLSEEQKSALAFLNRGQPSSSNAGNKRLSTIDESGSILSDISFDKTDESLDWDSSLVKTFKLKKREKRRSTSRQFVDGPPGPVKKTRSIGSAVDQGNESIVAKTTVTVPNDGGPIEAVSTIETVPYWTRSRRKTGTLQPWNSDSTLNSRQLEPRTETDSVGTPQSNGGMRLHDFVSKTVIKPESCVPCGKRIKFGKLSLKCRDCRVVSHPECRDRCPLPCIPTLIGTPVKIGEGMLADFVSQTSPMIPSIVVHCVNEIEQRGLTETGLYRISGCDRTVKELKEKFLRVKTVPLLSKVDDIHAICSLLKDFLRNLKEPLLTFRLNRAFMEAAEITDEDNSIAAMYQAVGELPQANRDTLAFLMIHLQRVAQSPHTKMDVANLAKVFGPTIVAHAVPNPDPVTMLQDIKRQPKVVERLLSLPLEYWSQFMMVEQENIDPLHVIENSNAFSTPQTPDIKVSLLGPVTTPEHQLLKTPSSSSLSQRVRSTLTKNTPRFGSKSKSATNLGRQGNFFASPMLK
Description: blockers of MgcRacGAP-driven Rac1 GTP hydrolysis – biochemical, ADP Hunter fluorescence, primary and confirmatory, confirmation (AID 624330). It is filed as functional.

The target of assay [7] is T3, RNA-binding protein pos-1 (Caenorhabditis elegans, UniProt G5EF15).
T3 sequence (G5EF15 whole entry): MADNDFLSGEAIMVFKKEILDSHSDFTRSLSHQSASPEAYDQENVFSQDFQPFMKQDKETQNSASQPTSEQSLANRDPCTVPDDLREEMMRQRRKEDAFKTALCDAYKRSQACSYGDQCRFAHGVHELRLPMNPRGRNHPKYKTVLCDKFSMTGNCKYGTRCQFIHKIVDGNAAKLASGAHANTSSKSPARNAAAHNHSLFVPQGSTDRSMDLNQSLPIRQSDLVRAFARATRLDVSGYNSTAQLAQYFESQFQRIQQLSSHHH
Description: disruptors of C. elegans POS-1 RNA interaction – biochemical, fluorescence polarization, dose response (AID 1964).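 Note: purified POS-1 fused to maltose binding protein made in E. coli; potency of compounds blocking POS-1 binding to fluorescent RNA.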 In general terms: Polarisation of emitted light reports the rotation of a fluorescent probe.

The target in assay [8] is T4, Zinc finger protein mex-5 (Caenorhabditis elegans, UniProt Q9XUB2).
T4 sequence (Q9XUB2 whole entry): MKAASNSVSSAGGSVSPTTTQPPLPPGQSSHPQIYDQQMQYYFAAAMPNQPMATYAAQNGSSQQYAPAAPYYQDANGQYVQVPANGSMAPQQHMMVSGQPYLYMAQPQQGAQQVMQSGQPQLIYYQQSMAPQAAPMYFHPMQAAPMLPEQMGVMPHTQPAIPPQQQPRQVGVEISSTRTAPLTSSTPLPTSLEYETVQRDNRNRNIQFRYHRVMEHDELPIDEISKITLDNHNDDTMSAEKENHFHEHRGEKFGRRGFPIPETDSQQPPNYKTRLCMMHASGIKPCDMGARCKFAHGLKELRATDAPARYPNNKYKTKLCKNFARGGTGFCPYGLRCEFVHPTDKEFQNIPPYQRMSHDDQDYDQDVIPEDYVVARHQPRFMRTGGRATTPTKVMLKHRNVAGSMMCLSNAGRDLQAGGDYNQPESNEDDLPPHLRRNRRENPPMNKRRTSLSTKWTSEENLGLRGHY
Description: potency of MEX-5 RNA-binding blockers – biochemical, C. elegans, fluorescence polarization, dose response (AID 1960).

For assay [9], the target named is Transitional endoplasmic reticulum ATPase (Homo sapiens, UniProt P55072, C522A). Put plainly: C522A mutant p97 ATPase inhibitors, dose response, counter-screen for p97 inhibitor project, biochemical, luminescence (AID 1544).
Chain of Transitional endoplasmic reticulum ATPase (Homo sapiens, UniProt P55072, C522A) (P55072 2-806 C522A limits assumed): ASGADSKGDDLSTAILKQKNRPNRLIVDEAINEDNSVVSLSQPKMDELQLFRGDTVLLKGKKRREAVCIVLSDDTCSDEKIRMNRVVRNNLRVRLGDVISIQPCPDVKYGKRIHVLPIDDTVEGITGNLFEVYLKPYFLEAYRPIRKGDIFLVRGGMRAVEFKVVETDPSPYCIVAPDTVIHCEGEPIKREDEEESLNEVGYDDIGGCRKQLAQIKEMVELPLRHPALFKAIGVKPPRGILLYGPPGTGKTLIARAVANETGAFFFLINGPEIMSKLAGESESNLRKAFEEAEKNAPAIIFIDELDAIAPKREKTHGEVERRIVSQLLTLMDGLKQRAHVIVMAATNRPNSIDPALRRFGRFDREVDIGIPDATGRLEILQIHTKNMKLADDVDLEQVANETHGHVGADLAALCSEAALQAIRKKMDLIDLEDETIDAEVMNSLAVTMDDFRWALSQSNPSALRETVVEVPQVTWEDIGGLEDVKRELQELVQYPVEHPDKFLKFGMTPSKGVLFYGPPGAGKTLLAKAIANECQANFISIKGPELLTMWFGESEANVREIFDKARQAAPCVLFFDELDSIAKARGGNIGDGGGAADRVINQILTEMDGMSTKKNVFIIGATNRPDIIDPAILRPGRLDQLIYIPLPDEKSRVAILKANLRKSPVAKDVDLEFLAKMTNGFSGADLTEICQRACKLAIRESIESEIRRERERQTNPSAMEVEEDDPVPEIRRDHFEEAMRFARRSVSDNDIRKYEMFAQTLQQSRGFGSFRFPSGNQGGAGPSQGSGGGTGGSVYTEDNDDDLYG
Assay [10] deals with Transitional endoplasmic reticulum ATPase (Homo sapiens, UniProt P55072). Put plainly: p97 ATPase inhibitors, dose response, biochemical (AID 1534).
Chain of Transitional endoplasmic reticulum ATPase (Homo sapiens, UniProt P55072) (P55072 whole entry): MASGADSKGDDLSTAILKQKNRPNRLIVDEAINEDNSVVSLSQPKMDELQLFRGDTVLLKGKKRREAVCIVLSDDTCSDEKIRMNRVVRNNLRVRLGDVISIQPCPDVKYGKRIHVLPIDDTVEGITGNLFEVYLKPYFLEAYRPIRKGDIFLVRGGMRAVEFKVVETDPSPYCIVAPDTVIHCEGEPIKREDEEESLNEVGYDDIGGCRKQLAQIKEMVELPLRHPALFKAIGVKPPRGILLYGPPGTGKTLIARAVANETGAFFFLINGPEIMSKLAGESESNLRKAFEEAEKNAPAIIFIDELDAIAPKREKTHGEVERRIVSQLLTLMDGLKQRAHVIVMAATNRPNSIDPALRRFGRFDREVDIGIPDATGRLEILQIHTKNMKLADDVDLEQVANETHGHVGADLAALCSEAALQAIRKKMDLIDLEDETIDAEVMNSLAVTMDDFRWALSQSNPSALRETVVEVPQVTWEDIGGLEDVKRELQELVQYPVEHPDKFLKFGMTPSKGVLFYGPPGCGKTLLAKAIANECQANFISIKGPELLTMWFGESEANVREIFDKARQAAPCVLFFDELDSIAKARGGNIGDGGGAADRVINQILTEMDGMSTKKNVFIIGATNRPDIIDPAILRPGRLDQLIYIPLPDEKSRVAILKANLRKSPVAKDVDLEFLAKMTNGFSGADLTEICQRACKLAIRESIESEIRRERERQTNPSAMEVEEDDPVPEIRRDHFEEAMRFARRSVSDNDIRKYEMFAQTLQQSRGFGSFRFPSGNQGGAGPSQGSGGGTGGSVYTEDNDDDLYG
Assay [11] deals with T5, Short transient receptor potential channel 4 (Mus musculus, UniProt Q9QUQ5).
T5 sequence (Q9QUQ5 whole entry): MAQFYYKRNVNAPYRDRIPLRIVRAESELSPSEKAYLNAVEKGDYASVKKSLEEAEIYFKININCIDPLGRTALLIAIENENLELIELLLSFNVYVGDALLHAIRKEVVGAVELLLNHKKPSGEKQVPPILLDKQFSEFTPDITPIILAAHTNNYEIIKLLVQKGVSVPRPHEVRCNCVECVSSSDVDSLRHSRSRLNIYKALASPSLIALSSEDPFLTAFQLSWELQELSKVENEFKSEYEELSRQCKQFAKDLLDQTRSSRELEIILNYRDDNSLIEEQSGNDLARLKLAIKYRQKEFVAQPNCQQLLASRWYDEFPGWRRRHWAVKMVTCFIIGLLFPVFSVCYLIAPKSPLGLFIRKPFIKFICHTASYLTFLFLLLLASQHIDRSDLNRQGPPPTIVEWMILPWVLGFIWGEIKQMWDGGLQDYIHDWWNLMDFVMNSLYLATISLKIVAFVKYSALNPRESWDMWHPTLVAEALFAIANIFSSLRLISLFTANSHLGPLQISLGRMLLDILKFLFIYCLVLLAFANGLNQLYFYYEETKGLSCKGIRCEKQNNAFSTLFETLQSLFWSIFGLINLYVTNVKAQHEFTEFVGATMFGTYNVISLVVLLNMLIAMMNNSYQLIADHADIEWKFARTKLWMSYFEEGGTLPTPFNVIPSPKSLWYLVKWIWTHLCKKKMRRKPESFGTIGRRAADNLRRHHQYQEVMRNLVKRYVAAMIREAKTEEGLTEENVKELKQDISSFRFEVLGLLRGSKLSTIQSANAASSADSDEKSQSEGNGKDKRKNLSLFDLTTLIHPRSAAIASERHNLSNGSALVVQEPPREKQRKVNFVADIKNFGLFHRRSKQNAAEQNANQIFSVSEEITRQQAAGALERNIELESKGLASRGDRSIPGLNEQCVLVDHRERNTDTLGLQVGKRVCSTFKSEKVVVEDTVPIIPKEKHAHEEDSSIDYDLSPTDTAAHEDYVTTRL
Description: block of DAMGO-driven TRPC4 calcium entry – cell-based, HEK293 TRPC4/mu-opioid, Fluo-4 calcium, dose response (AID 434942).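 Note: potency of inhibitors blocking the TRPC4 calcium response.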 The assay is classed as functional.

The target in assay [12] is FAD-linked sulfhydryl oxidase ALR (Homo sapiens, UniProt P55789). Put plainly: ALR-catalysed DTT oxidation blockers – biochemical, H2O2 detection, luminescence, cherry-pick, dose response (AID 493248).
Chain of FAD-linked sulfhydryl oxidase ALR (P55789 whole entry): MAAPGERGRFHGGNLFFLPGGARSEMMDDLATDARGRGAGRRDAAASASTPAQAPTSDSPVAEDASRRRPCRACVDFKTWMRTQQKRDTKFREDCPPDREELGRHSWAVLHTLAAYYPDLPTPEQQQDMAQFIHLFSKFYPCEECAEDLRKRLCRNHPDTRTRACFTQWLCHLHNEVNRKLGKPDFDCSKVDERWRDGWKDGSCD
Assay [13] is described as follows: viability loss in HeLa cells – cytotoxicity control for MgcRacGAP inhibitor project, dose response (AID 624300). The assay is classed as functional.

Consider three compounds from ChEMBL document CHEMBL1201862, “PubChem BioAssay data set” (2004).

The source made the active and inactive calls. Bounds are passed on as bounds.

Chain of Cyclin-dependent kinase 5/CDK5 activator 1 (Q00535 whole entry): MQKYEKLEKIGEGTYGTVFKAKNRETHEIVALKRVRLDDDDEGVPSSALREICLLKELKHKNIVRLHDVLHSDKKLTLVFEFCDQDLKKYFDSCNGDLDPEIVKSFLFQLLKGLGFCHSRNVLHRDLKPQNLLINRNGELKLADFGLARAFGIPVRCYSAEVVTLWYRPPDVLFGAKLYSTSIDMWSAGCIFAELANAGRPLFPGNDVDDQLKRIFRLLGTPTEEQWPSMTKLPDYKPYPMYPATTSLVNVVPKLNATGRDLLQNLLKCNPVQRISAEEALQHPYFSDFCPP
Chain of Cyclin-dependent kinase 5/CDK5 activator 1 (Q15078 whole entry, further chain): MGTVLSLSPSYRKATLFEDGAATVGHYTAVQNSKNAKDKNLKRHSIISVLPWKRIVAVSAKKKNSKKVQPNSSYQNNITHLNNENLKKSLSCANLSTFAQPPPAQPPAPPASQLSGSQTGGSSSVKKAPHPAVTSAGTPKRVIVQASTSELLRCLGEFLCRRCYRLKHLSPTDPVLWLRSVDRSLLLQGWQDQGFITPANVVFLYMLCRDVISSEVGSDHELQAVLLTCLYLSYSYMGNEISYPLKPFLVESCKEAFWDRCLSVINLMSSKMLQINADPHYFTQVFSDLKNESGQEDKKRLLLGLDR

Take `COc1ccc(S(=O)(=O)c2nnn3c2[nH]c(=O)c2ccccc23)cc1`: the IC50 (usually the point on the concentration scale where inhibition reaches its midpoint) with Staphylococcus aureus was 0.563 µM (active).
For the compound `O=c1c(O)c(-c2ccc(O)c(O)c2)oc2cc(O)ccc12`, the values for the concentration at half-maximal activity (AC50) in [1] and in [4] were 1.69 µM (active) and 0.248 µM (active), respectively. Also, the EC50 in assay [2] and in assay [3] was > 99 µM (inactive) in each case. In addition, the IC50 in [5] is > 73.5 µM (inactive); in assay [6], 45.7 µM (active).
On to `NS(=O)(=O)c1ccc(Nc2nc(-c3ccc(O)cc3O)cs2)cc1`, for which the EC50 (in general, the concentration giving half of the maximal effect) in assay [7] was 17.1 µM (active); in assay [8], 9.7 µM (active); in [11], 1.33 µM (active). Also, the concentration for half-maximal inhibition (IC50) in [9] was > 50 µM (not active); in [10], 24.2 µM (not active); in [6], 44.5 µM (active). The results for the concentration at half-maximal activity (AC50) in assay [12] and in assay [4] were 3.12 µM (active) and 1.94 µM (active), respectively. The half-maximal cytotoxic concentration (CC50) (usually the concentration at which the toxic effect on the cells reaches its halfway point) in assay [13] was 100 µM (active).
